According to patent publication US20230139171A1 (SITA Information Networking Computing UK Limited, priority 2019, published 2023):
pIC50: −log10 of the molar value.

Assays:
Type in all cases: cell-based
human TLR8 = target: T1, human TLR8 (Homo sapiens, UniProt Q9NR97); assay: TLR8 inhibition reporter assay (HEK-Blue cells, SEAP reporter, R848 stimulation); conditions: HEK-Blue cells overexpressing human TLR8, SEAP reporter, R848 15.9 μM; read-out: TLR8 IC50
T1 construct: host or cells: HEK-Blue cells
T1 sequence (Q9NR97 27-1041): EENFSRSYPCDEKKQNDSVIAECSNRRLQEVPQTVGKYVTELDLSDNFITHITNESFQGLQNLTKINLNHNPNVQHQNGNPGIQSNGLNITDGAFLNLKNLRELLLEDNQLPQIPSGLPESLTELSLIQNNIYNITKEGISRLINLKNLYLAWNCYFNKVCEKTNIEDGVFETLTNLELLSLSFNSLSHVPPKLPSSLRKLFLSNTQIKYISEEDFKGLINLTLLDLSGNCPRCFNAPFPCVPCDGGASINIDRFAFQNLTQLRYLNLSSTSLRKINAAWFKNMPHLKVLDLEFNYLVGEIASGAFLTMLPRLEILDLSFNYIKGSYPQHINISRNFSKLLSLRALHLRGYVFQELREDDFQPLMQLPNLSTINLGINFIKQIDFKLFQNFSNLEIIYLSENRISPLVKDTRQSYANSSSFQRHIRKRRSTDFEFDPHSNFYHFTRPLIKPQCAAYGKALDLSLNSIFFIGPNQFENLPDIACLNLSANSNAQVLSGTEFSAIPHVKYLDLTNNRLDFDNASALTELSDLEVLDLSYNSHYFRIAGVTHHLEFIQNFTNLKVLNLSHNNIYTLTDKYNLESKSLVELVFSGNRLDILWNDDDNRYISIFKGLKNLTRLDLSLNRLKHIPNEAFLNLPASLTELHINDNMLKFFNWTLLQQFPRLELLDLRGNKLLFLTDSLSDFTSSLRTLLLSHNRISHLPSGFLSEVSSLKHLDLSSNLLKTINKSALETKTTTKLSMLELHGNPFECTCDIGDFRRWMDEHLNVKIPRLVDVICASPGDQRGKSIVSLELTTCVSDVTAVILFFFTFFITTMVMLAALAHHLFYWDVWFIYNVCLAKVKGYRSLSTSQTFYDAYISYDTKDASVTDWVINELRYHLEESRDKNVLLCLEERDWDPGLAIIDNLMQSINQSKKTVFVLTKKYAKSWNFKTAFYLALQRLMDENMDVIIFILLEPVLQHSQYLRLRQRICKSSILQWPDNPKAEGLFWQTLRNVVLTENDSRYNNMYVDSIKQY
Summary of the method: (§1)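 Screening used HEK-Blue cells overexpressing one human TLR (7, 8 or 9) and an IFN-β minimal promoter–NF-κB/AP-1 SEAP construct. Stimulation lasted 22 h at 37 °C with receptor-specific agonist: gardiquimod, R848 or ODN2006 at 7.5 μM, 15.9 μM and 5 nM.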

human TLR7 = target: T2, human TLR7 (Homo sapiens, UniProt Q9NYK1); assay: TLR7 inhibition reporter assay (HEK-Blue cells, SEAP reporter, gardiquimod stimulation); conditions: HEK-Blue cells overexpressing human TLR7, SEAP reporter, gardiquimod 7.5 μM; read-out: TLR7 IC50
T2 construct: host or cells: HEK-Blue cells
T2 sequence (Q9NYK1 27-1049): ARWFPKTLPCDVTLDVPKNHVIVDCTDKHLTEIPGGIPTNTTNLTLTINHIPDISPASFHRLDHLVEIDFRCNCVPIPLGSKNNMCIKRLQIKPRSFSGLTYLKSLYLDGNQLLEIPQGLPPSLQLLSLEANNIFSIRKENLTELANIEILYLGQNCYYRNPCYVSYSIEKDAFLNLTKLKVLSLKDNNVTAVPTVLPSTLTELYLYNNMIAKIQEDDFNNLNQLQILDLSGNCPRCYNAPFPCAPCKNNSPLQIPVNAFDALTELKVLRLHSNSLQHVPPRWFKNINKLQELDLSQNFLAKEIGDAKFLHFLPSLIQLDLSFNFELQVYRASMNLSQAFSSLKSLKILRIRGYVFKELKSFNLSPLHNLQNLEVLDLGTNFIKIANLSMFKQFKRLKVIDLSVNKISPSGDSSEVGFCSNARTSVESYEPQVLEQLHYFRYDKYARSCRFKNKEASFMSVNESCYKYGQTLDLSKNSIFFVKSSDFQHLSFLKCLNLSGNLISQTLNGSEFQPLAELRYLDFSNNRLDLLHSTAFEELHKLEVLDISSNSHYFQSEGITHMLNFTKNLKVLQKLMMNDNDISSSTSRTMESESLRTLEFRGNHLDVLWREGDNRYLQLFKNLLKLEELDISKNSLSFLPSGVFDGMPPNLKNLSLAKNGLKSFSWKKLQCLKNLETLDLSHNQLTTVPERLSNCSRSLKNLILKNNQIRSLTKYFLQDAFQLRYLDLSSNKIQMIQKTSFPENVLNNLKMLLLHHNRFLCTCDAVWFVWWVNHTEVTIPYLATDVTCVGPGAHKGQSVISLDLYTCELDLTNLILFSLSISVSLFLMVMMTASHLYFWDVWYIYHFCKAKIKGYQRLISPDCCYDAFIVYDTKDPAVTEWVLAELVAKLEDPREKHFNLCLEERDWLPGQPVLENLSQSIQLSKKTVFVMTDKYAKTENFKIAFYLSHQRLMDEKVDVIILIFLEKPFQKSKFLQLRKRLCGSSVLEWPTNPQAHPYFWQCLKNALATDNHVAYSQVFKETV
Summary of the method: as §1

human TLR9 = target: T3, human TLR9 (Homo sapiens, UniProt Q9NR96); assay: TLR9 inhibition reporter assay (HEK-Blue cells, SEAP reporter, ODN2006 stimulation); conditions: HEK-Blue cells overexpressing human TLR9, SEAP reporter, ODN2006 5 nM
T3 construct: host or cells: HEK-Blue cells
T3 sequence (Q9NR96 26-1032): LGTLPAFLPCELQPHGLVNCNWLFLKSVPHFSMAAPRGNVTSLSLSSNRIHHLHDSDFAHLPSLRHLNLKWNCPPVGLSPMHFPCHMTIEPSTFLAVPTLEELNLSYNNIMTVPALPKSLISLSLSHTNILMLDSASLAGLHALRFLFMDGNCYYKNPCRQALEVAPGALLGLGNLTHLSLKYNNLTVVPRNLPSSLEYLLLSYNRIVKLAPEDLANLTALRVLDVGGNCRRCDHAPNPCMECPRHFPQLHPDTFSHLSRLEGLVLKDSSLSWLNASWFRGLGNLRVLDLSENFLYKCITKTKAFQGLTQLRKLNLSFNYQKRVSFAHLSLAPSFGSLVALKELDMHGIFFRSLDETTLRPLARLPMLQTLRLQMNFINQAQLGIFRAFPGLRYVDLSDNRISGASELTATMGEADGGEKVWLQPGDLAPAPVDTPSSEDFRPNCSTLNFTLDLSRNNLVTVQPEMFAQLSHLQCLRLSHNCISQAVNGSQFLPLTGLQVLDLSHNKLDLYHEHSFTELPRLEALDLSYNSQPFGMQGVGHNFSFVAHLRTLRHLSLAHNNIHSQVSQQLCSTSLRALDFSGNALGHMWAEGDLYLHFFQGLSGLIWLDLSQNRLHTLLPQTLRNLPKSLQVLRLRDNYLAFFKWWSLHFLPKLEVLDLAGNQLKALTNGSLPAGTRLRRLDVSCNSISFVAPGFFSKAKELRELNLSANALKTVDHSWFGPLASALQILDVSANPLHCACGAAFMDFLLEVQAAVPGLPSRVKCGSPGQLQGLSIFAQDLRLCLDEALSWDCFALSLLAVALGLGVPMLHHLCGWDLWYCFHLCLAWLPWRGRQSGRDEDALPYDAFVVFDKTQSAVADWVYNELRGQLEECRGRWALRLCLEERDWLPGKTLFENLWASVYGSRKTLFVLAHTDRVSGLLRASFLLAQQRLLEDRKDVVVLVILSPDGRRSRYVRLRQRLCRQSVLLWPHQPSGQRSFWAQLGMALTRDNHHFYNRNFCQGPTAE
Summary of the method: as §1

Q: Which results are given for `COc1cc(-c2[nH]c3sc(C4CCC(N(C)CC(=O)N(C)C)CC4)nc3c2C(C)C)cn2ncnc12` (single isomer, unassigned) [Example 162, 2-((4-(6-isopropyl-5-(8-methoxy-[1,2,4]triazolo[1,5-a]pyridin-6-yl)-4H-pyrrolo[3,2-d]thiazol-2-yl)cyclohexyl)(methyl)amino)-N,N-dimethylacetamide]?
A: pIC50 (human TLR8): 7.80; pIC50 (human TLR7): 8.59; pIC50 (human TLR9): 4.69

Q: How did the pIC50 (human TLR8) turn out when `COc1cc(-c2[nH]c3sc(C4CCC(N(C)CC(=O)N(C)C)CC4)nc3c2C(C)C)cn2ncnc12` (single isomer, unassigned) [Example 163, 2-((4-(6-isopropyl-5-(8-methoxy-[1,2,4]triazolo[1,5-a]pyridin-6-yl)-4H-pyrrolo[3,2-d]thiazol-2-yl)cyclohexyl)(methyl)amino)-N,N-dimethylacetamide] was run?
A: Its pIC50 is 7.69.

Q: What about the pIC50 (human TLR7) of the same compound?
A: The pIC50 was 8.80.

Q: What about the pIC50 (human TLR9) of the same compound?
A: Its pIC50 is 5.03.

Q: With `COc1cc(-c2[nH]c3sc(C4CCC(N(C)CCS(C)(=O)=O)CC4)nc3c2C(C)C)cn2ncnc12` (single isomer, unassigned) [Example 164, 4-(6-isopropyl-5-(8-methoxy-[1,2,4]triazolo[1,5-a]pyridin-6-yl)-4H-pyrrolo[3,2-d]thiazol-2-yl)-N-methyl-N-(2-(methylsulfonyl)ethyl) cyclohexan-1-amine] as the compound, how does the pIC50 (human TLR8) read?
A: Its pIC50 is 8.35.

Q: And the pIC50 (human TLR7)?
A: The pIC50 was 8.88.

Q: What about the pIC50 (human TLR9) of the same compound?
A: Its pIC50 is 4.81.

Q: Which results are given for `COc1cc(-c2[nH]c3sc(C4CCC(N(C)CCS(C)(=O)=O)CC4)nc3c2C(C)C)cn2ncnc12` (single isomer, unassigned) [Example 165, 4-(6-isopropyl-5-(8-methoxy-[1,2,4]triazolo[1,5-a]pyridin-6-yl)-4H-pyrrolo[3,2-d]thiazol-2-yl)-N-methyl-N-(2-(methylsulfonyl)ethyl) cyclohexan-1-amine]?
A: pIC50 (human TLR8): 7.84; pIC50 (human TLR7): 8.79; pIC50 (human TLR9): 4.64

Q: Which results are given for `COc1cc(-c2[nH]c3sc(C4CCC(NC5CCN(C(C)C)CC5)CC4)nc3c2C(C)C)cn2ncnc12` (single isomer, unassigned) [Example 166, 1-isopropyl-N-(4-(6-isopropyl-5-(8-methoxy-[1,2,4]triazolo[1,5-a]pyridin-6-yl)-4H-pyrrolo[3,2-d]thiazol-2-yl)cyclohexyl)piperidin-4-amine]?
A: pIC50 (human TLR8): 9.06; pIC50 (human TLR7): 9.06; pIC50 (human TLR9): 6.42

Q: Which results are given for `COc1cc(-c2[nH]c3sc(C4CCC(NC5CCN(C(C)C)CC5)CC4)nc3c2C(C)C)cn2ncnc12` (single isomer, unassigned) [Example 167, 1-isopropyl-N-(4-(6-isopropyl-5-(8-methoxy-[1,2,4]triazolo[1,5-a]pyridin-6-yl)-4H-pyrrolo[3,2-d]thiazol-2-yl)cyclohexyl)piperidin-4-amine]?
A: pIC50 (human TLR8): 7.46; pIC50 (human TLR7): 8.13; pIC50 (human TLR9): 5.77

Q: Which results are given for `COc1cc(-c2[nH]c3sc(C4CCC(NC56CC(C5)C6)CC4)nc3c2C(C)C)cn2ncnc12` (single isomer, unassigned) [Example 168, N-(4-(6-isopropyl-5-(8-methoxy-[1,2,4]triazolo[1,5-a]pyridin-6-yl)-4H-pyrrolo[3,2-d]thiazol-2-yl)cyclohexyl)bicyclo[1.1.1]pentan-1-amine]?
A: pIC50 (human TLR8): 7.47; pIC50 (human TLR7): 8.18; pIC50 (human TLR9): < 4.30

Q: Which results are given for `COc1cc(-c2[nH]c3sc(C4CCC(NC56CC(C5)C6)CC4)nc3c2C(C)C)cn2ncnc12` (single isomer, unassigned) [Example 169, N-(4-(6-isopropyl-5-(8-methoxy-[1,2,4]triazolo[1,5-a]pyridin-6-yl)-4H-pyrrolo[3,2-d]thiazol-2-yl)cyclohexyl)bicyclo[1.1.1]pentan-1-amine]?
A: pIC50 (human TLR8): 7.77; pIC50 (human TLR7): 8.38; pIC50 (human TLR9): 5.01

Q: What does the source list for `CNCCNC1CCC(c2nc3c(C(C)C)c(-c4cc(OC)c5ncnn5c4)[nH]c3s2)CC1` (single isomer, unassigned) [Example 170, N1-(4-(6-isopropyl-5-(8-methoxy-[1,2,4]triazolo[1,5-a]pyridin-6-yl)-4H-pyrrolo[3,2-d]thiazol-2-yl)cyclohexyl)-N2-methylethane-1,2-diamine]?
A: pIC50 (human TLR8): 8.33; pIC50 (human TLR7): 8.62; pIC50 (human TLR9): 5.75

Q: What does the source list for `CNCCNC1CCC(c2nc3c(C(C)C)c(-c4cc(OC)c5ncnn5c4)[nH]c3s2)CC1` (single isomer, unassigned) [Example 171, N1-(4-(6-isopropyl-5-(8-methoxy-[1,2,4]triazolo[1,5-a]pyridin-6-yl)-4H-pyrrolo[3,2-d]thiazol-2-yl)cyclohexyl)-N2-methylethane-1,2-diamine]?
A: pIC50 (human TLR8): 8.66; pIC50 (human TLR7): 9.11; pIC50 (human TLR9): 6.06

Q: Which results are given for `CC(C)c1c(-c2cn(C)c3ncccc23)[nH]c2sc(C3CCC(NCC4(C)COC4)CC3)nc12` (single isomer, unassigned) [Example 172, 4-(6-isopropyl-5-(1-methyl-1H-pyrrolo[2,3-b]pyridin-3-yl)-4H-pyrrolo[3,2-d]thiazol-2-yl)-N-((3-methyloxetan-3-yl)methyl)cyclohexan-1-amine]?
A: pIC50 (human TLR8): 8.91; pIC50 (human TLR7): 8.55; pIC50 (human TLR9): 4.83
